{
  "source": "patent US8778871B2",
  "about": "(Takeda Pharmaceutical Company Limited, priority 2004, dated 2014)",
  "note": "Starred links: 1 amine or outer side, 2 acyl side, 3 side chain; linkers in the order of their positions; H or OH if unused. Non-standard residues stand in square brackets, D forms with d. Primed or numbered codes have the meaning given here. Tyr(Me) = COc1ccc(C[C@H](N[*:1])C(=O)[*:2])cc1; d1Nal = N[C@H](Cc1cccc2ccccc12)C(=O)O; d2Nal = N[C@H](Cc1ccc2ccccc2c1)C(=O)O; Arg(Me) = CNC(=N)NCCC[C@H](N)C(=O)O; Abu = CC[C@H](N)C(=O)O; Aib = CC(C)(N)C(=O)O; azaGly = NNC(=O)O",
  "data": [
    {"target": "T1, hOT7T175 (Homo sapiens, UniProt Q969F8, L364H)", "T1 construct": "expressed in transfected cells", "T1 sequence (Q969F8 whole entry L364H)": "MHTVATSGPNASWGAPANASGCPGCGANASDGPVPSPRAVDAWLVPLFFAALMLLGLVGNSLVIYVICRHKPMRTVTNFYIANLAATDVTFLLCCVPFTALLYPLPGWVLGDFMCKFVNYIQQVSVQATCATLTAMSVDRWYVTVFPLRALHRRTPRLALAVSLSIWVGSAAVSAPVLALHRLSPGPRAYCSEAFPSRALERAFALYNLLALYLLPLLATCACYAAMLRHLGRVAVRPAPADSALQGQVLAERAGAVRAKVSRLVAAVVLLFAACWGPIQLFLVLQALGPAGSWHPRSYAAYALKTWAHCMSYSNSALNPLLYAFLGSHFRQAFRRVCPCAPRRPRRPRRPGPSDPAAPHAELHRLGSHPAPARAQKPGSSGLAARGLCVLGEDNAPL", "assay_type": "cell-based", "settings": "hOT7T175/CHO, FLIPR, evaluation for 40 seconds after initiation of the reaction", "procedure": "The intracellular Ca ion level-increasing activity was measured using FLIPR as in TEST EXAMPLE 2.", "values": [
      {"substance": "Ac-D-Tyr-D-Trp-Asn-Thr-Phe-AzaGly-Abu-Arg(Me)-Trp-NH2 (Ac-[dY][dW]NTF[azaGly][Abu][Arg(Me)]W-NH2; SMILES CC[C@H](NC(=O)NNC(=O)[C@H](Cc1ccccc1)NC(=O)[C@@H](NC(=O)[C@H](CC(N)=O)NC(=O)[C@@H](Cc1c[nH]c2ccccc12)NC(=O)[C@@H](Cc1ccc(O)cc1)NC(C)=O)[C@@H](C)O)C(=O)N[C@@H](CCCNC(=N)NC)C(=O)N[C@@H](Cc1c[nH]c2ccccc12)C(N)=O) [Compound No. 698]", "Specific Act. (EC50/MS10 EC50)": 2.2},
      {"substance": "Ac-D-Tyr-D-Trp-Asn-Thr-Phe-AzaGly-Gln-Arg(Me)-Trp-NH2 (Ac-[dY][dW]NTF[azaGly]Q[Arg(Me)]W-NH2; SMILES CNC(=N)NCCC[C@H](NC(=O)[C@H](CCC(N)=O)NC(=O)NNC(=O)[C@H](Cc1ccccc1)NC(=O)[C@@H](NC(=O)[C@H](CC(N)=O)NC(=O)[C@@H](Cc1c[nH]c2ccccc12)NC(=O)[C@@H](Cc1ccc(O)cc1)NC(C)=O)[C@@H](C)O)C(=O)N[C@@H](Cc1c[nH]c2ccccc12)C(N)=O) [Compound No. 682]", "Specific Act. (EC50/MS10 EC50)": 7.3},
      {"substance": "Ac-D-Tyr-D-Trp-Asn-Thr-Phe-AzaGly-Ile-Arg(Me)-Trp-NH2 (Ac-[dY][dW]NTF[azaGly]I[Arg(Me)]W-NH2; SMILES CC[C@H](C)[C@H](NC(=O)NNC(=O)[C@H](Cc1ccccc1)NC(=O)[C@@H](NC(=O)[C@H](CC(N)=O)NC(=O)[C@@H](Cc1c[nH]c2ccccc12)NC(=O)[C@@H](Cc1ccc(O)cc1)NC(C)=O)[C@@H](C)O)C(=O)N[C@@H](CCCNC(=N)NC)C(=O)N[C@@H](Cc1c[nH]c2ccccc12)C(N)=O) [Compound No. 678]", "Specific Act. (EC50/MS10 EC50)": 1.1},
      {"substance": "Ac-D-Tyr-D-Trp-Asn-Thr-Phe-AzaGly-Leu-Arg(Me2)asym-Trp-NH2 [Compound No. 607]", "Specific Act. (EC50/MS10 EC50)": 2.2},
      {"substance": "Ac-D-Tyr-D-Trp-Asn-Thr-Phe-AzaGly-Leu-Arg(Me)-D-Trp-NH2 (Ac-[dY][dW]NTF[azaGly]L[Arg(Me)][dW]-NH2; SMILES CNC(=N)NCCC[C@H](NC(=O)[C@H](CC(C)C)NC(=O)NNC(=O)[C@H](Cc1ccccc1)NC(=O)[C@@H](NC(=O)[C@H](CC(N)=O)NC(=O)[C@@H](Cc1c[nH]c2ccccc12)NC(=O)[C@@H](Cc1ccc(O)cc1)NC(C)=O)[C@@H](C)O)C(=O)N[C@H](Cc1c[nH]c2ccccc12)C(N)=O) [Compound No. 689]", "Specific Act. (EC50/MS10 EC50)": 2.3},
      {"substance": "Ac-D-Tyr-D-Trp-Asn-Thr-Phe-AzaGly-Leu-Har(Me)-Trp-NH2 [Compound No. 646]", "Specific Act. (EC50/MS10 EC50)": 1.8},
      {"substance": "Ac-D-Tyr-D-Trp-Asn-Thr-Phe-AzaGly-Leu-Pya(4)-Trp-NH2 (Ac-[dY][dW]NTF[azaGly]L-{Pya(4)-Trp-NH2}) [Compound No. 688]", "Specific Act. (EC50/MS10 EC50)": 9.7},
      {"substance": "Ac-D-Tyr-D-Trp-Asn-Thr-Phe-AzaGly-γMeLeu-Arg(Me)-Trp-NH2 (Ac-[dY][dW]NTF[azaGly]-{γMeLeu-Arg(Me)-Trp-NH2}) [Compound No. 699]", "Specific Act. (EC50/MS10 EC50)": 1.3},
      {"substance": "Ac-D-Tyr-D-Trp-Asn-Thr-Phe-Gly-Aib-Arg(Me)-Trp-NH2 (Ac-[dY][dW]NTFG[Aib][Arg(Me)]W-NH2; SMILES CNC(=N)NCCC[C@H](NC(=O)C(C)(C)NC(=O)CNC(=O)[C@H](Cc1ccccc1)NC(=O)[C@@H](NC(=O)[C@H](CC(N)=O)NC(=O)[C@@H](Cc1c[nH]c2ccccc12)NC(=O)[C@@H](Cc1ccc(O)cc1)NC(C)=O)[C@@H](C)O)C(=O)N[C@@H](Cc1c[nH]c2ccccc12)C(N)=O) [Compound No. 700]", "Specific Act. (EC50/MS10 EC50)": 0.8},
      {"substance": "Ac-D-Tyr-D-Trp-Asn-Thr-PheΨ(CH2NH)Gly-Leu-Arg(Me)-Trp-NH2 [Compound No. 569]", "Specific Act. (EC50/MS10 EC50)": 0.5},
      {"substance": "Ac-D-Tyr-D-Trp-Asn-Thr-Trp-AzaGly-Leu-Arg(Me)-Trp-NH2 (Ac-[dY][dW]NTW[azaGly]L[Arg(Me)]W-NH2; SMILES CNC(=N)NCCC[C@H](NC(=O)[C@H](CC(C)C)NC(=O)NNC(=O)[C@H](Cc1c[nH]c2ccccc12)NC(=O)[C@@H](NC(=O)[C@H](CC(N)=O)NC(=O)[C@@H](Cc1c[nH]c2ccccc12)NC(=O)[C@@H](Cc1ccc(O)cc1)NC(C)=O)[C@@H](C)O)C(=O)N[C@@H](Cc1c[nH]c2ccccc12)C(N)=O) [Compound No. 692]", "Specific Act. (EC50/MS10 EC50)": 0.7},
      {"substance": "Ac-D-Tyr-D-Trp-Asn-Thr-Tyr(Me)-AzaGly-Leu-Arg(Me)-Trp-NH2 (Ac-[dY][dW]NT[Tyr(Me)][azaGly]L[Arg(Me)]W-NH2; SMILES CNC(=N)NCCC[C@H](NC(=O)[C@H](CC(C)C)NC(=O)NNC(=O)[C@H](Cc1ccc(OC)cc1)NC(=O)[C@@H](NC(=O)[C@H](CC(N)=O)NC(=O)[C@@H](Cc1c[nH]c2ccccc12)NC(=O)[C@@H](Cc1ccc(O)cc1)NC(C)=O)[C@@H](C)O)C(=O)N[C@@H](Cc1c[nH]c2ccccc12)C(N)=O) [Compound No. 693]", "Specific Act. (EC50/MS10 EC50)": 1.5},
      {"substance": "Ac-D-Tyr-D-Trp-Asn-Thr-Tyr-AzaGly-Leu-Arg(Me)-Trp-NH2 (Ac-[dY][dW]NTY[azaGly]L[Arg(Me)]W-NH2; SMILES CNC(=N)NCCC[C@H](NC(=O)[C@H](CC(C)C)NC(=O)NNC(=O)[C@H](Cc1ccc(O)cc1)NC(=O)[C@@H](NC(=O)[C@H](CC(N)=O)NC(=O)[C@@H](Cc1c[nH]c2ccccc12)NC(=O)[C@@H](Cc1ccc(O)cc1)NC(C)=O)[C@@H](C)O)C(=O)N[C@@H](Cc1c[nH]c2ccccc12)C(N)=O) [Compound No. 691]", "Specific Act. (EC50/MS10 EC50)": 1.1},
      {"substance": "Ac-D-Tyr-D-Trp-Asp(NMe2)-Thr-Phe-AzaGly-Leu-Arg(Me)-Trp-NH2 [Compound No. 703]", "Specific Act. (EC50/MS10 EC50)": 3.7},
      {"substance": "Ac-D-Tyr-D-Trp-Gly-Ser-Phe-AzaGly-Leu-Arg(Me)-Trp-NH2 (Ac-[dY][dW]GSF[azaGly]L[Arg(Me)]W-NH2; SMILES CNC(=N)NCCC[C@H](NC(=O)[C@H](CC(C)C)NC(=O)NNC(=O)[C@H](Cc1ccccc1)NC(=O)[C@H](CO)NC(=O)CNC(=O)[C@@H](Cc1c[nH]c2ccccc12)NC(=O)[C@@H](Cc1ccc(O)cc1)NC(C)=O)C(=O)N[C@@H](Cc1c[nH]c2ccccc12)C(N)=O) [Compound No. 686]", "Specific Act. (EC50/MS10 EC50)": 0.6},
      {"substance": "Ac-D-Tyr-Pya(4)-Asn-Thr-Phe-AzaGly-Leu-Arg(Me)-Trp-NH2 [Compound No. 624]", "Specific Act. (EC50/MS10 EC50)": 1.2},
      {"substance": "Ac-Tyr-D-Pya(4)-Asn-Thr-Phe-AzaGly-Leu-Arg(Me)-Trp-NH2 [Compound No. 611]", "Specific Act. (EC50/MS10 EC50)": 1.7},
      {"substance": "Ac-[d1Nal][dW]NTF[azaGly]L[Arg(Me)]W-NH2 [Compound No. 619]", "Specific Act. (EC50/MS10 EC50)": 1.5},
      {"substance": "Ac-[d2Nal][dW]NTF[azaGly]L[Arg(Me)]W-NH2 [Compound No. 620]", "Specific Act. (EC50/MS10 EC50)": 1.7},
      {"substance": "Ac-[dE][dW]NTF[azaGly]L[Arg(Me)]W-NH2 [Compound No. 622]", "Specific Act. (EC50/MS10 EC50)": 2.8},
      {"substance": "Ac-[dR][dY][dW]NTF[azaGly]L[Arg(Me)]W-NH2 [Compound No. 568]", "Specific Act. (EC50/MS10 EC50)": 0.6},
      {"substance": "Ac-[dY]WNT[dF][azaGly]L[Arg(Me)]W-NH2 [Compound No. 586]", "Specific Act. (EC50/MS10 EC50)": 0.3},
      {"substance": "Ac-[dY][dT]NTF[azaGly]L[Arg(Me)]W-NH2 [Compound No. 628]", "Specific Act. (EC50/MS10 EC50)": 4.4},
      {"substance": "Ac-[dY][dW]D(NHMe)TF[azaGly]L[Arg(Me)]W-NH2 [Compound No. 702]", "Specific Act. (EC50/MS10 EC50)": 0.6}
    ]}
  ]
}
